Test results published in patent US12186302B2, “Dipeptidyl peptidase-IV inhibitor and food with function claims” (TOYOTA JIDOSHA KABUSHIKI KAISHA, priority 2020, dated 2025).

Tests used:
DPP-IV [1] = target: T1, DPP-IV (Homo sapiens, UniProt P27487); details: background art, JP Patent Publication (Kokai) No. 2018-118939 A; cited from earlier work
DPP-IV [2] = target: T1, DPP-IV; test: DPP (IV) Inhibitor Screening Assay Kit (Cayman Chemical), fluorescence; format: biochemical; details: for DPP-IV inhibitory activity (inhibition rate, FIG. 1): comparison of various catechins, 37° C., 30 minutes
Excerpt: In this Example, various catechins including a methylated catechin were used to examine their DPP-IV inhibitory activity. Regarding the DPP-IV inhibitory activity, a commercially available DPP (IV) Inhibitor Screening Assay Kit (manufactured by Cayman Chemical) was used. Catechins tested in this Example were epicatechin-3-O-gallate (ECG), epicatechin (EC), epigallocatechin(EGC), (−)-epigallocatechin gallate (EGCG), and (−)-epigallocatechin 3-(3″-O-methyl)gallate (EGCG3″Me). These catechins were purchased from Nagara Science Co., Ltd. In addition, caffeine was purchased from Sigma-Aldrich, and L-theanine was purchased from FUJIFILM Wako Pure Chemical Corporation for testing.
In the experiment, first, a sample (5 μL), buffer (15 μL), DPP-IV (5 μL), and a substrate (25 μL) were added to a 96-well plate and incubated at 37° C. for 30 minutes. Then, the fluorescence intensity was measured by using a fluorometer (Envision 2104 Multilaber Reader, manufactured by Perkin Elmer) (excitation wavelength: 355 nm; fluorescence wavelength: 450 nm).
Next, the fluorescence intensity measured with the addition of ultrapure water (5 μL), buffer (20 μL), and a substrate (25 μL) was subtracted as a background from the fluorescence intensity of each sample. The fluorescence intensity measured with the addition of ultrapure water (5 μL), buffer (15 μL), DPP-IV (5 μL), and a substrate (25 μL) was defined as 100% initial activity.
The inhibition rate was calculated by subtracting the fluorescence intensity of the sample from the fluorescence intensity of 100% initial activity, then dividing the difference by the fluorescence intensity of 100% initial activity, and finally multiplying the quotient by 100. As a positive control, sitagliptin included in the kit was used.
Specifically, in the experiment described above, the concentration of EGCG3″Me was set to 1 μM, 5 μM, 10 μM, 50 μM, 100 μM or 200 μM, and the DPP-IV inhibitory activity was measured using the DPP (IV) Inhibitor Screening Assay Kit.

T1 sequence (P27487 whole entry): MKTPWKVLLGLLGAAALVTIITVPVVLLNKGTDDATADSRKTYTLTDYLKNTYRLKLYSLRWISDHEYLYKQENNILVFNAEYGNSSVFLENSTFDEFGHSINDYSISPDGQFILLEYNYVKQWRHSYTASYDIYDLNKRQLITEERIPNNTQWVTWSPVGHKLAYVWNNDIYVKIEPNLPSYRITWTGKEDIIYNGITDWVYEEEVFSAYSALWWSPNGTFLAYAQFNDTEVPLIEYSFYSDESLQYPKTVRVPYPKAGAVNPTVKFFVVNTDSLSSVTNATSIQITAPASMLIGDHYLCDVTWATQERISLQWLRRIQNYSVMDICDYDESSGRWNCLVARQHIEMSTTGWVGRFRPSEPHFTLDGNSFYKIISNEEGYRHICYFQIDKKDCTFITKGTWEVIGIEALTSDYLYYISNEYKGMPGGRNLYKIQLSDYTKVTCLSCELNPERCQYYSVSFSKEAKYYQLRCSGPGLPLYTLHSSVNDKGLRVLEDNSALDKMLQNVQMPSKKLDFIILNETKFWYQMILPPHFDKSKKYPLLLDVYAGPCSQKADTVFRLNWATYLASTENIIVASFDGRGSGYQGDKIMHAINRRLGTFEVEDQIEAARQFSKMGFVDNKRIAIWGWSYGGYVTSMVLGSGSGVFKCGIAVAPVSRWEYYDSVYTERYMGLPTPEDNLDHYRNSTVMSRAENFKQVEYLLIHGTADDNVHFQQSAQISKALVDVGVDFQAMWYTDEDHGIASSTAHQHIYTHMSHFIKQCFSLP

Row | Compound | DPP-IV inhibitory effect (DPP-IV [1]) | DPP-IV inhibitory activity (inhibition rate, FIG. 1) (DPP-IV [2]) | relationship between concentration and DPP-IV inhibitory activity (FIG. 2) (DPP-IV [2]; 1 μM, 5 μM, 10 μM, 50 μM, 100 μM or 200 μM) | DPP-IV inhibitory activity (FIG. 2) (DPP-IV [2]; when concentration exceeds 50 μM)
1 | O=C(O[C@@H]1Cc2c(O)cc(O)cc2O[C@@H]1c1ccc(O)c(O)c1)c1cc(O)c(O)c(O)c1 [ECg, epicatechin gallate] | have the DPP-IV inhibitory effect |  |  | 
2 | Oc1cc(O)c2c(c1)O[C@H](c1cc(O)c(O)c(O)c1)[C@H](O)C2 [EGC, epigallocatechin] | have the DPP-IV inhibitory effect |  |  | 
3 | Oc1cc(O)c2c(c1)O[C@H](c1cc(O)c(O)c(O)c1)[C@@H](O)C2 [GC, gallocatechin] | have the DPP-IV inhibitory effect |  |  | 
4 | O=C(O[C@@H]1Cc2c(O)cc(O)cc2O[C@H]1c1cc(O)c(O)c(O)c1)c1cc(O)c(O)c(O)c1 [GCg, gallocatechin gallate] | have the DPP-IV inhibitory effect |  |  | 
5 | (−)-epigallocatechin gallate [EGCG] | have the DPP-IV inhibitory effect | excellent DPP-IV inhibitory activity |  | 
6 | catechin gallate [Cg] | have the DPP-IV inhibitory effect |  |  | 
7 | epigallocatechin-3-O-(3-O-methyl)gallate [EGCG3″Me] |  | particularly excellent DPP-IV inhibitory activity | tends to increase as the concentration increases | extremely excellent DPP-IV inhibitory activity
